Assay [1] relates to bile flow and biliary salt. The experiment in a line: Cholagogic action: bile flow and excretion of biliary salt. The settings on record: 200 mg/kg oral; for bile flow / excretion of biliary salt: before treatment = 100. The assay is classed as in vivo, male rat (4 week-aged, SD-JCL strain). The procedure: The male rat (4 week-aged, SD-JCL strain) was anesthetized with sodium pentobarbital (37.5 mg/kg, intraperitoneal injection). The abdominal cavity was opened through a midline incision. The common bile duct was catheterized with polyethylene tube o.d. 0.8 mm. The catheter was brought to the outside through the abdominal incision wound prior to closing. Bile was collected from the catheter continuously with time intervals of one hour. The quantity of bile produced in one hour was determined by weighing and that of biliary salt was determined by enzymatic method (Ikagaku Jikkenho Koza 1B, Biological Constituents II, edited by Tamio YAMAKAWA). The amount of biliary salts was represented as cholic acid equivalent.
In the representation of the results, the quantities of bile and biliary salts produced in one hour prior to the administration of drug were taken as 100. The compound of this invention was orally administered at the dose of 200 mg/kg. As reference anethol trithion was used.

In assay [2] the test system is Acute Liver Damage associated with Centrilobular Necrosis (carbon tetrachloride). The experiment in a line: Protective effect on acute liver damage associated with centrilobular necrosis (carbon tetrachloride model). The assay is classed as in vivo, mice (four-week-old male, dd strain). The settings on record: 250 mg/kg oral 6 h before CCl4, average of 5 to 6 mice; for p-GPT (plasma glutamic-pyruvic transaminase activity): 24 h after CCl4, values over 1,000 regarded as 1,000; for Liver Damage Index: 0 normal, 2 slightly recognized, 4 clearly observable damage, 6 heavy damage. From the text: Carbon tetrachloride (CCl4) administration induces centrilobular necrosis of the liver associated with loss of diphosphopyridine nucleotide, hepatic glycogen, coenzyme A and increase in neutral fat. Release of several enzymes from the hepatocytes, and increases of enzyme activities in the plasma are recognized as the result of the damage of the liver. A suitable means for evaluating the degree of damage induced by CCl4 or the degree of protection afforded by drugs is to study the plasma glutamic-pyruvic transaminase (p-GPT) activity.
Method: The test compounds were dissolved or suspended in olive oil and administered orally at the dose of 250 mg/kg to the mice (Four-week-old male mice-dd strain). After 6 hours, CCl4 was administered orally (0.05 ml/kg as olive oil solution). Animals were killed 24 hours after CCl4 administration, and the liver was grossly observed. The plasma was obtained by centrifugation. Activities of p-GPT were determined by the method of Reitman and Frankel and expressed in Karmen units.
Score for liver damage was as follows: […]
4 Clearly observable damage
Each figure indicates average of 5 to 6 mice. Values of p-GPT over 1,000 Karmen unit regarded as 1,000 for calculation of average for convenience.

Assay [3] in a line: Effect on glucose metabolism (blood sugar after glucose load). Format: in vivo, mice. The settings on record: for Blood Sugar: 250 mg/kg oral 6 h before glucose 4.0 g/kg. The procedure: The test compounds dissolved in olive oil and administered orally at the dose of 250 mg/kg to the mice. After 6 hours, 4.0 g/kg of glucose was orally administered. The same amount of glucose was given to the control animals. 0.02 ml of blood was taken from caudal vein of the mice at 30, 60, 90 and 120 min. after glucose administration. Blood sugar was measured by the procedure of Somogyi-Nelson. Number of animals used was 5 to 6 mice for each treatment.

As to `COC(=O)C(C(=O)OCC(C)C)=C1SCCS1` [Compound 20], the bile flow is reported as 113±4.3 in assay [1] (1 hour after treatment); 112±8.2 in assay [1] (2 hours after treatment); 106±6.3 in assay [1] (3 hours after treatment); 113±8.8 in assay [1] (4 hours after treatment); 93±3.8 in assay [1] (5 hours after treatment). For the same compound, the “excretion of biliary salt” value is reported as 104±11 in assay [1] (1 hour after treatment); 119±13 in assay [1] (2 hours after treatment); 120±17 in assay [1] (3 hours after treatment); 113±18 in assay [1] (4 hours after treatment); 82±7.3 in assay [1] (5 hours after treatment). The “Amount of total biliary salts excreted for 5 hours relative to control” value in assay [1] (versus control) turned out to be 1.55 times. Also, in assay [1] (versus control), the “Quantity of total excreted bile for 5 hours relative to control” value turned out to be 1.14 times. In addition, the “p-GPT (plasma glutamic-pyruvic transaminase activity)” value (“p-GPT” for short) in assay [2] turned out to be 62 Karmen units. The “Liver Damage Index” value in assay [2] came to 0.2.
Turning to `CCOCCOC(=O)C(C(=O)OC(C)C)=C1SCCS1` [Compound 24], the “Blood Sugar (percent of 0 min value)” value in assay [3] (0 min) was 100%; in assay [3] (30 min), 184%; in assay [3] (60 min), 158%; in assay [3] (90 min), 128%; in assay [3] (120 min), 104%. Also, the “Blood Sugar” value in assay [3] (0 min) was 135 ± 13.2 mg/dL; in assay [3] (30 min) it was 248 ± 20.2 mg/dL; in assay [3] (60 min), 214 ± 18.8 mg/dL; in assay [3] (90 min), 173 ± 24.4 mg/dL; in assay [3] (120 min), 140 ± 16.3 mg/dL. Besides, the “p-GPT” value in assay [2] is listed as 152 Karmen units. The “Liver Damage Index” value in assay [2] came out at 1.2.
Regarding `CCC(C)OC(=O)C(C(=O)OC(C)CC)=C1SCCS1` (centres unmarked) [Compound 7], in assay [2], the “p-GPT” value was determined as 102 Karmen units and the “Liver Damage Index” value came out at 1.2.
As to `COC(=O)C(C(=O)OC)=C1SCCS1` [Compound 1], in assay [2], the “p-GPT” value is 200 Karmen units and the “Liver Damage Index” value is 2.2.
For `CCCCSC(=O)C(C(=O)OCC)=C1SCCS1` [Compound 28] the same measures were 31 Karmen units and 0.8.
As to `CC(C)(C)OC(=O)C(C(=O)OC(C)(C)C)=C1SCC[S+]1[O-]` (centres unmarked) [Compound 33], in assay [2], the “p-GPT” value is 212 Karmen units and the “Liver Damage Index” value was 1.4.
For `CCOC(=O)C(C(=O)OC(C)C)=C1SCC[S+]1[O-]` (centres unmarked) [Compound 35] the same measures were 152 Karmen units and 0.8.
In the same order, the values of `COC(=O)C(C(=O)OCC(C)C)=C1SCC[S+]1[O-]` (centres unmarked) [Compound 34] are 102 Karmen units and 1.0.
For `CCOCCOC(=O)C(C(=O)OCC)=C1SCCS1` [Compound 25] the same measures were 85 Karmen units and 1.0.
Take `CC(C)CCOC(=O)C(C(=O)OCCC(C)C)=C1SCCS1` [Compound 10]: in assay [2], the “p-GPT” value is 350 Karmen units and the “Liver Damage Index” value amounted to 3.3.
In the same order, the values of `CCCOC(=O)C(C(=O)OCCC)=C1SCCS1` [Compound 3, Di-n-propyl 1,3-dithiolan-2-ylidene malonate] are 26 Karmen units and 1.0.
`CCOCCOC(=O)C(C(=O)OC(C)C)=C1SCC[S+]1[O-]` (centres unmarked) [Compound 36]: in assay [2], the “p-GPT” value worked out at 210 Karmen units and the “Liver Damage Index” value stood at 1.4.
As to `CCCCSC(=O)C(C(=O)SCCCC)=C1SCCS1` [Compound 14], in assay [2], the “p-GPT” value is on record as 241 Karmen units and the “Liver Damage Index” value is on record as 1.4.
For the compound `NC(=O)CCCCC1CCSS1` (centres unmarked) [Thioctic acid amide, thioctic acid amide, reference compound], in assay [2], the “p-GPT” value is listed as 763 Karmen units and the “Liver Damage Index” value came to 4.8.
`CC(C)(C)OC(=O)C(C(=O)OC(C)(C)C)=C1SCCS1` [Compound 8]: in assay [2], the “p-GPT” value stood at 230 Karmen units and the “Liver Damage Index” value came to 1.2.
On to `CCSC(=O)C(C(=O)SCC)=C1SCCS1` [Compound 12], for which the “Blood Sugar (percent of 0 min value)” value in assay [3] (0 min) stood at 100%; in assay [3] (30 min), 187%; in assay [3] (60 min), 160%; in assay [3] (90 min), 118%; in assay [3] (120 min) it was 100%. The “Blood Sugar” value in assay [3] (0 min) stood at 141 ± 11.3 mg/dL; in assay [3] (30 min), 264 ± 21.5 mg/dL; in assay [3] (60 min), 225 ± 17.2 mg/dL; in assay [3] (90 min) it was 167 ± 15.6 mg/dL; in assay [3] (120 min), 142 ± 13.2 mg/dL. The “p-GPT” value in assay [2] is given as 36 Karmen units. In assay [2], the “Liver Damage Index” value was 1.0.
`CCOCCOC(=O)C(C(=O)OCCOCC)=C1SCCS1` [Compound 16]: in assay [2], the “p-GPT” value stood at 150 Karmen units and the “Liver Damage Index” value came out at 1.0.
In the same order, the values of `CCOC(=O)C(C(=O)OC)=C1SCCS1` [Compound 18] are 240 Karmen units and 1.4.
As for `COC(=O)C(C(=O)OC(C)C)=C1SCCS1` [Compound 19, Methyl isopropyl 1,3-dithiolan-2-ylidene malonate], in assay [2], the “p-GPT” value worked out at 89 Karmen units and the “Liver Damage Index” value is on record as 1.0.
For `COC(=O)C(C(=O)OC)=C1SCC[S+]1[O-]` (centres unmarked) [Compound 29] the same measures were 222 Karmen units and 0.6.
Regarding `CCCCCOC(=O)C(C(=O)OCCCCC)=C1SCCS1` [Compound 9], in assay [2], the “p-GPT” value was 550 Karmen units and the “Liver Damage Index” value came to 3.2.
Consider `CCCCOCCOC(=O)C(C(=O)OCCOCCCC)=C1SCCS1` [Compound 17], for which, in assay [2], the “p-GPT” value is reported as 242 Karmen units and the “Liver Damage Index” value was found to be 3.0.
`CCCCOC(=O)C(C(=O)OCCCC)=C1SCCS1` [Compound 5]: in assay [2], the “p-GPT” value is recorded as 322 Karmen units and the “Liver Damage Index” value stood at 3.0.
In the same order, the values of `CSC(=O)C(C(=O)SC)=C1SCCS1` [Compound 11] are 750 Karmen units and 2.5.
With `CC(C)COC(=O)C(C(=O)OC(C)C)=C1SCCS1` [Compound 23], in assay [2], the “p-GPT” value came to 102 Karmen units and the “Liver Damage Index” value stood at 1.0.
For the compound `COCCOC(=O)C(C(=O)OCCOC)=C1SCCS1` [Compound 15, di(methoxyethyl) 1,3-dithiolan-2-ylidene malonate], in assay [2], the “p-GPT” value worked out at 85 Karmen units and the “Liver Damage Index” value was determined as 1.5.
For `CCOC(=O)C(C(=O)SC(C)C)=C1SCCS1` [Compound 27] the same measures were 18 Karmen units and 0.4.

Source of the values: US4080467A, “Pharmaceutical compositions comprising 1,3-dithiolan-2-ylidene malonate derivatives” (Nihon Nohyaku Co., Ltd., priority 1976, dated 1978).
